# Assays:
# [1] = target: T1, RORγt (Homo sapiens, UniProt P51449); assay: RORγt binding test using fluorescent-labeled synthetic ligand (TR-FRET); settings: test compound 1 μM; read-out: binding inhibitory rate (%) of fluorescent-labeled synthetic ligand to RORγt at test compound 1 μM
# T1 sequence (P51449 1-497 isoform P51449-2): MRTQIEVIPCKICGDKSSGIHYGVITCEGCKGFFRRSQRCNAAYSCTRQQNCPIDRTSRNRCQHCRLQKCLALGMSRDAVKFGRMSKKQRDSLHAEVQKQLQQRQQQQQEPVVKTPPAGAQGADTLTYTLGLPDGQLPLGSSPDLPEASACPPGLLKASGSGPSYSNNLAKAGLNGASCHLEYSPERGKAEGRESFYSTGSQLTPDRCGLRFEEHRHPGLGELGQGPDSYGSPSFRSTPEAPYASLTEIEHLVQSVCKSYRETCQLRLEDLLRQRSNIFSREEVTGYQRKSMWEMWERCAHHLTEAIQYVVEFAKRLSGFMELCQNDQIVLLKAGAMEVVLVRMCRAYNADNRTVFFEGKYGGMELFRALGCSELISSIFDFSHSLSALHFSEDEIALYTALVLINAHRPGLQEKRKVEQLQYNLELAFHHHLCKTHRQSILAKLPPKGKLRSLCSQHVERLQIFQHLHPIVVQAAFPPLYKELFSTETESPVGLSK
# Method in brief: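 Compound displacement of a fluorescent-labeled synthetic ligand from His-tagged RORγt was read by TR-FRET with a terbium anti-His antibody. Buffer was 20 mM Tris-HCl pH 7.5, 100 mM NaCl, 1 mM DTT and 0.1% BSA, with stocks of 240 nM protein, 12 μM ligand and 8 nM antibody (pre-mix, not final). Incubations were 20 min plus 20 min at room temperature, with excitation at 320 nm, emission at 520 nm and a 100 μs delay.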
# [2] = target: T1, RORγt; assay: Jurkat reporter test (human IL-17 ROR response element luciferase reporter, RORγt vector); format: cell-based; settings: test compound 3 μM; Jurkat cells; read-out: luminescence level inhibitory rate (%) at test compound 3 μM
# Method in brief: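 Jurkat cells were electroporated (1350 V, 10 ms, 3 pulses) with the reporter constructs and plated in RPMI with 10% lipid-reduced FCS, 10 mM HEPES pH 7.5 and 5 μM lovastatin. After overnight culture with compound, luciferase activity was measured by luminescence following a 10 min room-temperature incubation with Bright-Glo.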
# [3] = target: T1, RORγt; assay: Cofactor recruitment test (Alpha Screen, biotinylated SRC-1 peptide); format: biochemical; settings: read-out: signal value inhibitory rate (%) at test compound 1 μM
# Method: Cofactor Recruitment Test
# Cofactor recruitment test was performed by Alpha Screen (Histidine Detection Kit, PerkinElmer) method. First, a test compound was diluted with an assay buffer (50 mM Tris-HCl (pH 7.5), 50 mM KCl, 1 mM DTT, 0.1% BSA) and added to a 384 well plate by 5 μL. […] The mixture was stood in a dark place for 1 hr, and the signal value was measured by Envision (PerkinElmer).
Structure (SMILES),inhibition at 1 µM [1] [%],inhibition at 3 µM [2] [%],inhibition at 1 µM [3] [%]
"COC(=O)N1Cc2ccc(C(=O)N[C@@H]3CCCN(C(=O)Nc4cc5c(=O)n(CC6CC6)c(=O)n(C(C)C)c5cc4F)C3)cc2C1 [Example 343, methyl 5-(((3R)-1-((3-(cyclopropylmethyl)-7-fluoro-1-isopropyl-2,4-dioxo-1,2,3,4-tetrahydroquinazolin-6-yl)carbamoyl)piperidin-3-yl)carbamoyl)-1,3-dihydro-2H-isoindole-2-carboxylate]",101,108,107
"CC(C)n1c(=O)n(CC2CC2)c(=O)c2cc(NC(=O)N3CCCC(NC(=O)Nc4ccccc4)C3)ccc21 (stereo not drawn) [Example 146, N-(3-(cyclopropylmethyl)-1-isopropyl-2,4-dioxo-1,2,3,4-tetrahydroquinazolin-6-yl)-3-((phenylcarbamoyl)amino) piperidine-1-carboxamide]",102,101,103
"CC(C)n1c(=O)n(CC2CC2)c(=O)c2cc(NC(=O)N3CCOC(C(=O)Nc4ccc(C#N)c(F)c4)C3)ccc21 (stereo not drawn) [Example 176, N^2-(4-cyano-3-fluorophenyl)-N^4-(3-(cyclopropylmethyl)-1-isopropyl-2,4-dioxo-1,2,3,4-tetrahydroquinazolin-6-yl)morpholine-2,4-dicarboxamide]",101,100,111
"COc1ccc(C(=O)N[C@@H]2CCCN(C(=O)Nc3ccc4c(c3)c(=O)n(CC3CC3)c(=O)n4C(C)C)C2)cc1 [Example 244, (3R)-N-(3-(cyclopropylmethyl)-1-isopropyl-2,4-dioxo-1,2,3,4-tetrahydroquinazolin-6-yl)-3-((4-methoxybenzoyl)amino)piperidine-1-carboxamide]",102,104,105
"CC(C)n1c(=O)n(CC2CC2)c(=O)c2cc(NC(=O)[C@@H]3CCC[C@@H]3NC(=O)c3ccc(C#N)cc3)ccc21 [Example 264, 4-cyano-N-((1S,2R)-2-((3-(cyclopropylmethyl)-1-isopropyl-2,4-dioxo-1,2,3,4-tetrahydroquinazolin-6-yl)carbamoyl)cyclopentyl)benzamide]",102,102,110
"CC(C)n1c(=O)n(CC2CC(F)(F)C2)c(=O)c2cc(NC(=O)N3CCO[C@@H](C(=O)Nc4ccc(C#N)c(Cl)c4)C3)c(F)cc21 [Example 350, (2R)—N^2-(3-chloro-4-cyanophenyl)-N^4-(3-((3,3-difluorocyclobutyl)methyl)-7-fluoro-1-isopropyl-2,4-dioxo-1,2,3,4-tetrahydroquinazolin-6-yl)morpholine-2,4-dicarboxamide]",102,107,108
"CC(C)n1c(=O)n(CC2CC2)c(=O)c2cc(NC(=O)N3CCC[C@@H](NC(=O)c4ccc5c(c4)CCO5)C3)ccc21 [Example 251, (3R)-N-(3-(cyclopropylmethyl)-1-isopropyl-2,4-dioxo-1,2,3,4-tetrahydroquinazolin-6-yl)-3-((2,3-dihydro-1-benzofuran-5-ylcarbonyl)amino)piperidine-1-carboxamide]",102,102,105
"CC(C)n1c(=O)n(CC2CC2(F)F)c(=O)c2cc(NC(=O)N3CCOC(C(=O)Nc4cc(Cl)c(C#N)cc4F)C3)c(F)cc21 (mixture of isomers) [Example 348, (2R)—N^2-(5-chloro-4-cyano-2-fluorophenyl)-N^4-(3-((2,2-difluorocyclopropyl)methyl)-7-fluoro-1-isopropyl-2,4-dioxo-1,2,3,4-tetrahydroquinazolin-6-yl)morpholine-2,4-dicarboxamide (mixture of two stereoisomers)]",102,107,107
"CC(C)n1c(=O)n(CC2CC2)c(=O)c2cc(NC(=O)N3CCO[C@@H](C(=O)Nc4cnc(C#N)c(Cl)c4)C3)ccc21 [Example 122, (2R)-N^2-(5-chloro-6-cyanopyridin-3-yl)-N^4-(3-(cyclopropylmethyl)-1-isopropyl-2,4-dioxo-1,2,3,4-tetrahydroquinazolin-6-yl)morpholine-2,4-dicarboxamide]",101,103,112

# From patent US10000488B2, “Heterocyclic compound” (TAKEDA PHARMACEUTICAL COMPANY LIMITED, priority 2014, dated 2018)
